Source: patent US20170065730A1, “COMPOSITION FOR IMAGING ATHEROSCLEROSIS AND METHOD FOR DIAGNOSING ATHEROSCLEROSIS BY USING SAME” (priority 2014, published 2017)

Tested on: atherosclerotic site of the aorta
Assay: Fluorescence imaging of aorta sections after ear vein injection of RITC-MSA or RITC
Assay type: in vivo
Settings: cholesterol diet rabbit, 10 minutes after ear vein injection
Method: Ten 12-week-old normal rabbits (New Zealand White rabbits) were used for experiment. They were randomly divided into two groups of 5 rabbits. One group was given a normal diet and the other group was given a diet containing 1% cholesterol. The animals were kept under a standardized condition (21° C., 41-62% humidity) with regular light/dark (10/14 hr) cycles and were given free access to water and feed. 3 months later, after intravenously injecting 1 mCi of ^68Ga-MSA under anesthesia, positron emission tomography was performed on the whole body for 10 minutes from 10 minutes after the injection (FIGS. 5 and 6). On the next day, the rabbits were anesthetized and RITC-MSA (42 μg/0.1 mL) or RITC mixed in 0.9% physiological saline was injected into the ear vein of the rabbits. 10 minutes later, the rabbits were euthanized and the aorta was cut and kept at −20° C. The aorta sections were fixed at room temperature for 30 minutes in a 4% (v/v) buffered formalin solution, washed with cold PBS (pH 7.4), embedded in optimum cutting temperature compound (OCT, Sakura, Tokyo) and kept at −80° C. after a day for tissue penetration. Tissue slices cut to a thickness of […] were mounted on slides together with poly-D-lysine and then kept at room temperature until use after drying at 45° C. in the shade. […]

rhodamine B isothiocyanate [RITC]
fluorescence / binding at the atherosclerotic site of the aorta: cannot be observed
